What follows are compounds tested against IgE-Tb binding to soluble IgE receptor FcεR1α (Y131A mutation) (Homo sapiens, UniProt P01854, N146Q/N252Q) (assay: In vitro FRET assay: inhibition of binding of IgE-Tb to receptor FcεR1α-Y131A-AF488). Conditions: read-out: FRET IC50 range.
Sequence of IgE-Tb binding to soluble IgE receptor FcεR1α (Y131A mutation) (P01854 whole entry N146Q/N252Q, looked up): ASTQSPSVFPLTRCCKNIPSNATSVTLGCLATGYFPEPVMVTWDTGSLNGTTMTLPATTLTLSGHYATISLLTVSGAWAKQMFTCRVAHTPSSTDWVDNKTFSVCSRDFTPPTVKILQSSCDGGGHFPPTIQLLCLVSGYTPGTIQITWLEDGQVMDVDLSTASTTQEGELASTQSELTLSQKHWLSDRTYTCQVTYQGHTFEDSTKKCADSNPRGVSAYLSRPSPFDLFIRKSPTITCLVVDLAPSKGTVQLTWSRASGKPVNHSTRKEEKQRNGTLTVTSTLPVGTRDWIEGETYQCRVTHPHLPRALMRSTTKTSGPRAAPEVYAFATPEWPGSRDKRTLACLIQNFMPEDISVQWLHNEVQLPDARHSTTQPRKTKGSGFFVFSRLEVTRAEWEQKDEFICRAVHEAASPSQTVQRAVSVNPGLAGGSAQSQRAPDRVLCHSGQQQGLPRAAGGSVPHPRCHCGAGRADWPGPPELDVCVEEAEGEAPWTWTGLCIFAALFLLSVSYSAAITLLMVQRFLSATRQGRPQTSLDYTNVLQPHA

With Cn1nnc(-c2ccc(NC3CCc4c3cc(S(=O)(=O)NCC(C)(C)F)c3cc(C5CC5)ncc43)cn2)n1 (centres unmarked) [Example 40, 3-cyclopropyl-N-(2-fluoro-2-methylpropyl)-7-[[6-(2-methyltetrazol-5-yl)pyridin-3-yl]amino]-8,9-dihydro-7H-cyclopenta[h]isoquinoline-5-sulfonamide] as the compound, how does the IC50 read?
The IC50 was 1 to 10 nM.

Which IC50 does the source give for CC(C)(F)CNS(=O)(=O)c1cc2c(c3cnc(C4CC4)cc13)C(Nc1cncc3ccccc13)CC2 (centres unmarked) [Example 68, 3-cyclopropyl-N-(2-fluoro-2-methylpropyl)-9-(isoquinolin-4-ylamino)-8,9-dihydro-7H-cyclopenta[h]isoquinoline-5-sulfonamide] here?
Its IC50 is 100 to 2000 nM.

Which IC50 does the source give for CC(C)(F)CNS(=O)(=O)c1cc2c(c3cnc(C4CC4)cc13)CCC2NCc1cc2ccccc2[nH]1 (centres unmarked) [Example 61, 3-cyclopropyl-N-(2-fluoro-2-methylpropyl)-7-(1H-indol-2-ylmethylamino)-8,9-dihydro-7H-cyclopenta[h]isoquinoline-5-sulfonamide] here?
The IC50 was 100 to 2000 nM.

With CC(C)(F)CNS(=O)(=O)c1cc2c(c3cnc(C4CC4)cc13)CCC2C(=O)O (centres unmarked) [Example 7, 3-cyclopropyl-5-[(2-fluoro-2-methylpropyl)sulfamoyl]-8,9-dihydro-7H-cyclopenta[h]isoquinoline-7-carboxylic Acid] as the compound, how does the IC50 read?
Its IC50 is 100 to 2000 nM.

For CC(C)CNS(=O)(=O)c1cc2c(c3cnc(C4CC4)c(F)c13)CCC2 [Example 27, 3-cyclopropyl-4-fluoro-N-(2-methylpropyl)-8,9-dihydro-7H-cyclopenta[h]isoquinoline-5-sulfonamide], which IC50 is on record?
Its IC50 is 100 to 2000 nM.

CC(C)CNS(=O)(=O)c1cc2c(c3cnc(C4CC4)cc13)CCC2Nc1nc2ccccc2[nH]1 (centres unmarked) [Example 92, 7-(1H-benzimidazol-2-ylamino)-3-cyclopropyl-N-(2-methylpropyl)-8,9-dihydro-7H-cyclopenta[h]isoquinoline-5-sulfonamide] was tested. Which IC50 did it give?
The IC50 was 10 to 50 nM.

With CC(C)(F)CNS(=O)(=O)c1cc2c(c3cnc(C4CC4)cc13)CC[C@@H]2NC(=O)c1cccnc1 (single isomer, unassigned) [Example 9, N-[(7R*)-3-cyclopropyl-5-[(2-fluoro-2-methylpropyl)sulfamoyl]-8,9-dihydro-7H-cyclopenta[h]isoquinolin-7-yl]pyridine-3-carboxamide] as the compound, how does the IC50 read?
The IC50 was 100 to 2000 nM.

CC(C)CNS(=O)(=O)c1cc2c(c3cnc(C4CC4)cc13)CCC2NC(=S)Nc1cccnc1 (centres unmarked) [Example 95, 1-[3-cyclopropyl-5-(isobutylsulfamoyl)-8,9-dihydro-7H-cyclopenta[h]isoquinolin-7-yl]-3-(3-pyridyl)thiourea] was tested. Which IC50 did it give?
The IC50 was 10 to 50 nM.

For CC(C)(F)CNS(=O)(=O)c1cc2c(c3cnc(C4CC4)cc13)CCC2c1cccnc1F (centres unmarked) [Example 11, 3-cyclopropyl-N-(2-fluoro-2-methylpropyl)-7-(2-fluoropyridin-3-yl)-8,9-dihydro-7H-cyclopenta[h]isoquinoline-5-sulfonamide], which IC50 is on record?
The IC50 was 100 to 2000 nM.

With CCNC(=S)NC1CCc2cc(S(=O)(=O)NCC(C)C)c3cc(C4CC4)ncc3c21 (centres unmarked) [Example 71, 1-[3-cyclopropyl-5-(2-methylpropylsulfamoyl)-8,9-dihydro-7H-cyclopenta[h]isoquinolin-9-yl]-3-ethylthiourea] as the compound, how does the IC50 read?
The IC50 was 100 to 2000 nM.

With Cc1cc(Nc2nncn2[C@@H]2CCc3c2cc(S(=O)(=O)NCC(C)C)c2cc(C4CC4)ncc32)n(C)n1 (single isomer, unassigned) [Example 87, (7R*)-3-cyclopropyl-7-[3-[(2,5-dimethylpyrazol-3-yl)amino]-1,2,4-triazol-4-yl]-N-(2-methylpropyl)-8,9-dihydro-7H-cyclopenta[h]isoquinoline-5-sulfonamide] as the compound, how does the IC50 read?
Its IC50 is 10 to 50 nM.

How did the IC50 turn out when CCNc1nncn1C1CCc2cc(S(=O)(=O)NCC(C)C)c3cc(C4CC4)ncc3c21 (centres unmarked) [Example 72, 3-cyclopropyl-9-[3-(ethylamino)-1,2,4-triazol-4-yl]-N-(2-methylpropyl)-8,9-dihydro-7H-cyclopenta[h]isoquinoline-5-sulfonamide] was run?
Its IC50 is 100 to 2000 nM.

With COc1ccnc2c1ncn2C1CCc2c1cc(S(=O)(=O)NCC(C)(C)F)c1cc(C3CC3)ncc21 (centres unmarked) [Example 1, 3-cyclopropyl-N-(2-fluoro-2-methylpropyl)-7-(7-methoxyimidazo[4,5-b]pyridin-3-yl)-8,9-dihydro-7H-cyclopenta[h]isoquinoline-5-sulfonamide] as the compound, how does the IC50 read?
The IC50 was 100 to 2000 nM.

For CCNc1c(NC2CCc3c2cc(S(=O)(=O)NCC(C)C)c2cc(C4CC4)ncc32)c(=O)c1=O (single isomer, unassigned) [Example 53, (7R*)-3-cyclopropyl-7-[[2-(ethylamino)-3,4-dioxocyclobuten-1-yl]amino]-N-(2-methylpropyl)-8,9-dihydro-7H-cyclopenta[h]isoquinoline-5-sulfonamide], which IC50 is on record?
The IC50 was 10 to 50 nM.

For CC(C)(F)CNS(=O)(=O)c1cc2c(c3cnc(C4CC4)cc13)CCC2N1CCC[C@@H](N)C1 (stereo partly drawn) [Example 57, 7-[(3R)-3-aminopiperidin-1-yl]-3-cyclopropyl-N-(2-fluoro-2-methylpropyl)-8,9-dihydro-7H-cyclopenta[h]isoquinoline-5-sulfonamide], which IC50 is on record?
Its IC50 is 100 to 2000 nM.

Which IC50 does the source give for CC(C)(F)CNS(=O)(=O)c1cc2c(c3cnc(C4CC4)cc13)CCC2Nc1cccnc1 (centres unmarked) [Example 31, 3-cyclopropyl-N-(2-fluoro-2-methylpropyl)-7-(pyridin-3-ylamino)-8,9-dihydro-7H-cyclopenta[h]isoquinoline-5-sulfonamide] here?
The IC50 was 10 to 50 nM.

Which IC50 does the source give for CC(C)CNS(=O)(=O)c1cc2c(c3nnc(C4CC4)cc13)CCC2 [Example 22, 3-cyclopropyl-N-(2-methylpropyl)-8,9-dihydro-7H-cyclopenta[h]cinnoline-5-sulfonamide] here?
Its IC50 is 50 to 100 nM.

How did the IC50 turn out when CC(C)(F)CNS(=O)(=O)c1cc2c(c3cnc(C4CC4)cc13)CC[C@H]2Nc1nccn1CC1CC1 (single isomer, unassigned) [Example 13, (7R*)-3-cyclopropyl-7-[[1-(cyclopropylmethyl)imidazol-2-yl]amino]-N-(2-fluoro-2-methylpropyl)-8,9-dihydro-7H-cyclopenta[h]isoquinoline-5-sulfonamide] was run?
Its IC50 is 100 to 2000 nM.

With Cc1cc(-n2cnnc2NC2CCc3c2cc(S(=O)(=O)NCC(C)(C)F)c2cc(C4CC4)nnc32)n(C)n1 (centres unmarked) [Example 24, 3-cyclopropyl-7-[[4-(2,5-dimethylpyrazol-3-yl)-1,2,4-triazol-3-yl]amino]-N-(2-fluoro-2-methylpropyl)-8,9-dihydro-7H-cyclopenta[h]cinnoline-5-sulfonamide] as the compound, how does the IC50 read?
The IC50 was 10 to 50 nM.

How did the IC50 turn out when CC(C)CNS(=O)(=O)c1cc2c(c3cnc(C4CC4)cc13)CCC2n1cnnc1Nc1cccnc1 (centres unmarked) [Example 91, 3-cyclopropyl-N-(2-methylpropyl)-7-[3-(pyridin-3-ylamino)-1,2,4-triazol-4-yl]-8,9-dihydro-7H-cyclopenta[h]isoquinoline-5-sulfonamide] was run?
The IC50 was 10 to 50 nM.

Which IC50 does the source give for O=S(=O)(NC1CC(F)(F)C1)c1cc2c(c3cnc(C4CC4)cc13)CCC2n1cnnc1NCC1CC1 (centres unmarked) [Example 81, 3-cyclopropyl-7-[3-(cyclopropylmethylamino)-1,2,4-triazol-4-yl]-N-(3,3-difluorocyclobutyl)-8,9-dihydro-7H-cyclopenta[h]isoquinoline-5-sulfonamide] here?
Its IC50 is 100 to 2000 nM.

With Cc1cc(CNC(=O)NC2CCc3cc(S(=O)(=O)NCC(C)C)c4cc(C5CC5)ncc4c32)n(C)n1 (centres unmarked) [Example 46, 1-[3-cyclopropyl-5-(2-methylpropylsulfamoyl)-8,9-dihydro-7H-cyclopenta[h]isoquinolin-9-yl]-3-[(2,5-dimethylpyrazol-3-yl)methyl]urea] as the compound, how does the IC50 read?
The IC50 was 100 to 2000 nM.

Which IC50 does the source give for CCNc1c(N[C@@H]2CCc3cc(S(=O)(=O)NCC(C)C)c4cc(C5CC5)ncc4c32)c(=O)c1=O (single isomer, unassigned) [Example 79, (9R*)-3-cyclopropyl-9-[[2-(ethylamino)-3,4-dioxocyclobuten-1-yl]amino]-N-(2-methylpropyl)-8,9-dihydro-7H-cyclopenta[h]isoquinoline-5-sulfonamide] here?
The IC50 was 10 to 50 nM.

CC(C)CNS(=O)(=O)c1cc2c(c3cnc(C4CC4)cc13)C(Nc1nncn1-c1cccc3c1nnn3C)CC2 (centres unmarked) [Example 2, 3-cyclopropyl-N-isobutyl-9-[[4-(1-methylbenzotriazol-4-yl)-1,2,4-triazol-3-yl]amino]-8,9-dihydro-7H-cyclopenta[h]isoquinoline-5-sulfonamide] was tested. Which IC50 did it give?
The IC50 was 50 to 100 nM.

How did the IC50 turn out when Cn1cc(C#N)c(NC2CCc3cc(S(=O)(=O)NCC(C)(C)F)c4cc(C5CC5)ncc4c32)n1 (centres unmarked) [Example 67, 9-[(4-cyano-1-methylpyrazol-3-yl)amino]-3-cyclopropyl-N-(2-fluoro-2-methylpropyl)-8,9-dihydro-7H-cyclopenta[h]isoquinoline-5-sulfonamide] was run?
The IC50 was 100 to 2000 nM.

How did the IC50 turn out when Cc1cncc(Nc2nncn2[C@@H]2CCc3c2cc(S(=O)(=O)NCC(C)C)c2cc(C4CC4)ncc32)c1 (single isomer, unassigned) [Example 89, (7R*)-3-cyclopropyl-N-(2-methylpropyl)-7-[3-[(5-methylpyridin-3-yl)amino]-1,2,4-triazol-4-yl]-8,9-dihydro-7H-cyclopenta[h]isoquinoline-5-sulfonamide] was run?
The IC50 was 1 to 10 nM.

With CC(C)(F)CNS(=O)(=O)c1cc2c(c3cnc(C4CC4)cc13)CCC2Oc1cccnc1 (centres unmarked) [Example 94, 3-cyclopropyl-N-(2-fluoro-2-methylpropyl)-7-pyridin-3-yloxy-8,9-dihydro-7H-cyclopenta[h]isoquinoline-5-sulfonamide] as the compound, how does the IC50 read?
The IC50 was 100 to 2000 nM.

Which IC50 does the source give for CC(C)(F)CNS(=O)(=O)c1cc2c(c3cnc(C4CC4)cc13)CC[C@H]2n1ccnc1NCC1CC1 (single isomer, unassigned) [Example 12, (7R*)-3-cyclopropyl-7-[2-(cyclopropylmethylamino)imidazol-1-yl]-N-(2-fluoro-2-methylpropyl)-8,9-dihydro-7H-cyclopenta[h]isoquinoline-5-sulfonamide] here?
Its IC50 is 100 to 2000 nM.

For Cc1ccc(N/C(=N\C#N)NC2CCc3cc(S(=O)(=O)NCC(C)C)c4cc(C5CC5)ncc4c32)cc1 (centres unmarked) [Example 69, 2-cyano-1-[3-cyclopropyl-5-(2-methylpropylsulfamoyl)-8,9-dihydro-7H-cyclopenta[h]isoquinolin-9-yl]-3-(4-methylphenyl)guanidine], which IC50 is on record?
The IC50 was 100 to 2000 nM.

Reference: US20240092773A1, “DIHYDRO-CYCLOPENTA-ISOQUINOLINE SULFONAMIDES DERIVATIVES” (UCB Biopharma SRL, priority 2019, published 2024)
